Like-named read-outs stand apart in the source and are kept apart here.
Experiments:
[1] = molecular target: T1, hT2R14 (Homo sapiens (Human), UniProt Q9NYV8); test: hT2R panel inhibition, transient HEK293 G16g44, agonist Aristolochic Acid 2 μM; assay type: cell-based; settings: HEK293, compound at 25 μM
How it was run: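 Each hT2R was transiently transfected into HEK293 cells stably expressing G16g44 and assayed functionally for inhibition of agonist response. Agonists were applied at EC80: andrographolide at 0.5 mM for hT2R8 and aristolochic acid at 2 μM for hT2R14.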

[2] = molecular target: hT2R61 (Homo sapiens (Human), UniProt P59537); test: hT2R panel inhibition, transient HEK293 G16g44, agonist Aristolochic Acid 25 nM; assay type: cell-based; settings: HEK293, compound at 25 μM
How it was run: (§1)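 Each human T2R transiently transfected into HEK293 cells stably expressing G16g44; functional receptor assays run with the listed bitter agonist at EC80 concentration. Inhibition recorded as reduction of agonist-induced receptor activity in presence of Compound C.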

[3] = molecular target: hT2R51 (Homo sapiens (Human), UniProt P59533); test: hT2R panel inhibition, transient HEK293 G16g44, agonist Prop 2.5 μM; assay type: cell-based; settings: HEK293, compound at 25 μM
How it was run: as §1

[4] = molecular target: hT2R9 (Homo sapiens (Human), UniProt Q9NYW1); test: hT2R panel inhibition, transient HEK293 G16g44, agonist Ofloxacin 1 mM; assay type: cell-based; settings: HEK293, compound at 25 μM
How it was run: as §1

[5] = molecular target: hT2R16 (Homo sapiens (Human), UniProt Q9NYV7); test: hT2R panel inhibition, transient HEK293 G16g44, agonist Salicin 1 mM; assay type: cell-based; settings: HEK293, compound at 25 μM
How it was run: as §1

[6] = molecular target: hT2R13 (Homo sapiens (Human), UniProt Q9NYV9); test: hT2R panel inhibition, transient HEK293 G16g44, agonist Oxyphenonium 1 mM; assay type: cell-based; settings: HEK293, compound at 25 μM
How it was run: as §1

[7] = molecular target: hT2R5 (Homo sapiens (Human), UniProt Q9NYW4); test: hT2R panel inhibition, transient HEK293 G16g44, agonist Picoline 10 mM; assay type: cell-based; settings: HEK293, compound at 25 μM
How it was run: as §1

[8] = molecular target: hT2R7 (Homo sapiens (Human), UniProt Q9NYW3); test: hT2R panel inhibition, transient HEK293 G16g44, agonist Chloroquine pH6.5 10 mM; assay type: cell-based; settings: HEK293, compound at 25 μM
How it was run: as §1

[9] = molecular target: T1, hT2R14; test: hT2R14 antagonist high-throughput FLIPR assay, stable cell line with G16g44, agonist aristolochic acid; assay type: cell-based; settings: read-out: IC50 on hT2R14 bitter receptor
How it was run: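 HEK293 cells stably expressing hT2R14 with chimeric G16g44 were stimulated with aristolochic acid (3 μM), giving 70-80% of maximal receptor activity. Test compounds were added together with the agonist, and antagonism was read as fluorescent calcium signal on FLIPR.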

[10] = molecular target: hT2R75 (Homo sapiens (Human), UniProt P59540); test: hT2R panel inhibition, transient HEK293 G16g44, agonist Strychnine 1 μM; assay type: cell-based; settings: HEK293, read-out: screening result against bitter receptor 75, compound at 25 μM; receptor activated to EC80 with the corresponding agonist
[11] = molecular target: T2, hT2R8 (Homo sapiens (Human), UniProt Q9NYW2); test: hT2R panel inhibition, transient HEK293 G16g44, agonist Andrographolide 0.5 mM; assay type: cell-based; settings: HEK293, compound at 25 μM
Procedure: Specifically, in order to evaluate the inhibitory selectivity of the Compound C compound, this compound was tested against 22 human T2Rs which were deorphaned by Senomyx. These receptors and the bitter ligands that activate these human T2Rs are reported in earlier patent applications which are incorporated by reference herein. These 22 human T2Rs are hT2R1, 3, 4, 5, 7, 8, 9, 10, 13, 14, 16, 44, 51, 54, 55, 61, 63, 64, 65, 67, 71 and 75. The amino acid and nucleic acid sequences of all of these T2Rs may be found in these earlier patent applications. These human T2Rs were each individually transiently transfected into HEK293 cells that stably express the promiscuous G protein G16g44 and functional assays were effected using these receptors as disclosed in these same patent applications. […] The ligands were used at EC80 concentration levels. The list of bitter ligands utilized and the tested ligand concentrations are contained in Table 5 of this example.

[12] = molecular target: hT2R4 (Homo sapiens (Human), UniProt Q9NYW5); test: hT2R panel inhibition, transient HEK293 G16g44, agonist Chloroquine pH6.5 5 mM; assay type: cell-based; settings: HEK293, compound at 25 μM
How it was run: as §1

[13] = molecular target: T2, hT2R8; settings: compared with taster hT2R43-W35 and hT2R44-W35 alleles, FIG. 6
Excerpt: FIG. 6 is a plot of receptor activity as a function of log of the saccharin concentration.
Pronin et al., Curr. Biol. 17: 1403-8 (2007). Five individuals with the “taster” alleles (hT2R43-W35 and/or hT2R44-W35) and five with the “non-taster” alleles (hT2R43-S35 and hT2R44-R35) were selected based on genotyping analysis. Each subject was presented with 6 pairs of solutions and asked to determine which of the samples in a pair tasted more bitter.

[14] = system: bitterness of T2R8 specific agonist; test: Taste test with T2R8 specific agonist comparing a control bitter blocker and compound of interest; assay type: in vivo, human; settings: antagonist conc. 1
Procedure: To determine the effectiveness of an individual antagonist, taste tests were performed with a T2R8 specific agonist, the compound of interest and a reference bitter blocker. We have previously described a good hT2R8 antagonist that was proven to have taste effect, Example 4-8 from U.S. Provisional Appl. Ser. No. 60/957,129, filed Aug. 21, 2007: N-(1-((3,5-dimethylisoxazol-4-yl)methyl)-1H-pyrazol-4-yl)benzo[d][1,3]dioxole-5-carboxamide.

[15] = molecular target: T2, hT2R8; test: hT2R8 antagonist high-throughput FLIPR assay, stable cell line with G16g44, agonist andrographolide; assay type: cell-based
How it was run: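 HEK293 cells stably co-expressing hT2R8 and chimeric G16g44, read on FLIPR. Test compounds added together with andrographolide (200 μM), which drives the receptor to 70–80% of maximal activity; antagonism seen as reduced agonist response.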

[16] = system: bitter taste of instant coffee; test: 2-alternative forced choice taste test, instant coffee with hT2R8 antagonists; assay type: in vivo, human; settings: antagonist 5 μM
Procedure: Taste tests were performed with hT2R8 antagonists in instant coffee using a 2-alternative forced choice method with a taste panel of 15-20 panelists. Coffee samples with the antagonists were given to the taste panelists together with the same sample without antagonists, the panelists were asked to identify the bitterer sample within the pair.

[17] = molecular target: hT2R71 (Homo sapiens (Human), UniProt P59536); test: hT2R panel inhibition, transient HEK293 G16g44, agonist Picric Acid 10 μM; assay type: cell-based; settings: HEK293, compound at 25 μM; receptor activated to EC80 with agonist; read-out: inhibition of bitter receptor 71
How it was run: as §1

[18] = molecular target: hT2R10 (Homo sapiens (Human), UniProt Q9NYW0); test: hT2R panel inhibition, transient HEK293 G16g44, agonist Strychnine 50 μM; assay type: cell-based; settings: HEK293, read-out: inhibition of bitter receptor 10, compound at 25 μM; receptor activated to EC80 with agonist
[19] = system: hT2R67; test: hT2R panel inhibition, transient HEK293 G16g44, agonist Andrographolide 5 μM; assay type: cell-based, human; settings: compound at 25 μM; receptor activated to EC80 with agonist
How it was run: as §1

[20] = system: hT2R54; test: hT2R panel inhibition, transient HEK293 G16g44, agonist Ranitidine 5 mM; assay type: cell-based, human; settings: compound at 25 μM; receptor activated to EC80 with agonist
How it was run: as §1

[21] = system: hT2R65; test: hT2R panel inhibition, transient HEK293 G16g44, agonist Oleuropein 1 mM; assay type: cell-based, human; settings: compound at 25 μM; receptor activated to EC80 with agonist
How it was run: as §1

[22] = molecular target: hT2R3 (Homo sapiens (Human), UniProt Q9NYW6); test: hT2R panel inhibition, transient HEK293 G16g44, agonist Chloroquine pH6.5 50 μM; assay type: cell-based; settings: HEK293, compound at 25 μM; receptor activated to EC80 with agonist; read-out: inhibition of bitter receptor 3
How it was run: as §1

[23] = system: hT2R55; test: hT2R panel inhibition, transient HEK293 G16g44, agonist Cinchonine 150 μM; assay type: cell-based, human; settings: compound at 25 μM; receptor activated to EC80 with agonist
How it was run: as §1

[24] = molecular target: hT2R64 (Homo sapiens (Human), UniProt P59538); test: hT2R panel inhibition, transient HEK293 G16g44, agonist Aristolochic Acid 1 μM; assay type: cell-based; settings: HEK293, compound at 25 μM; receptor activated to EC80 with agonist; read-out: inhibition of bitter receptor 64
How it was run: as §1

[25] = system: hT2R44; test: hT2R panel inhibition, transient HEK293 G16g44, agonist Denatonium 0.5 μM; assay type: cell-based, human; settings: compound at 25 μM; receptor activated to EC80 with agonist
How it was run: as §1

[26] = system: hT2R63; test: hT2R panel inhibition, transient HEK293 G16g44, agonist Caffeine 1 mM or Andrographolide 100 μM; assay type: cell-based, human; settings: compound at 25 μM; receptor activated to EC80 with agonist
How it was run: as §1

T1 sequence (Q9NYV8 whole entry): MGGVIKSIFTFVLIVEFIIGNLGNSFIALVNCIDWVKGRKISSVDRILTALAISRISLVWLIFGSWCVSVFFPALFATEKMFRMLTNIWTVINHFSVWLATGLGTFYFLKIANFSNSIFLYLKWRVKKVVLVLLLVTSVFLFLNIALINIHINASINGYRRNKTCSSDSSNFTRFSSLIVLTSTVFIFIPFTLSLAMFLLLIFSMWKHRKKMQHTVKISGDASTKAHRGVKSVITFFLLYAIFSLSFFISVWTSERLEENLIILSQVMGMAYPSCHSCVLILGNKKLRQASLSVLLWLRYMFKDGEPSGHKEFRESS
T2 sequence (Q9NYW2 whole entry): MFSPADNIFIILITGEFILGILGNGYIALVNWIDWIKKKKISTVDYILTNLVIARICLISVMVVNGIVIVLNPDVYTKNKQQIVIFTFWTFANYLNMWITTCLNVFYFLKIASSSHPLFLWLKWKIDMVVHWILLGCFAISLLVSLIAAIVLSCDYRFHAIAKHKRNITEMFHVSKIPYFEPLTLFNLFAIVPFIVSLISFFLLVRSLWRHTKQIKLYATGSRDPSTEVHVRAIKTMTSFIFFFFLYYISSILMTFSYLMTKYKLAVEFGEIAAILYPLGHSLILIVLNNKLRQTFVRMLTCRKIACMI
Sequence of hT2R61 (P59537 whole entry): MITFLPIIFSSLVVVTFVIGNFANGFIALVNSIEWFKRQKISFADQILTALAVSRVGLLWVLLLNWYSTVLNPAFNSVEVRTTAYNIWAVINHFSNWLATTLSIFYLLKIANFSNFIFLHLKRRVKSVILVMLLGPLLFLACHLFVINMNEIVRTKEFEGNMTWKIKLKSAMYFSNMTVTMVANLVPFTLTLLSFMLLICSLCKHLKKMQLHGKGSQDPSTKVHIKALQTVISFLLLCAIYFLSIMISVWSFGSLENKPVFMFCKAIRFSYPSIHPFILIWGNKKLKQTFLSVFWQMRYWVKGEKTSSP
Sequence of hT2R4 (Q9NYW5 whole entry): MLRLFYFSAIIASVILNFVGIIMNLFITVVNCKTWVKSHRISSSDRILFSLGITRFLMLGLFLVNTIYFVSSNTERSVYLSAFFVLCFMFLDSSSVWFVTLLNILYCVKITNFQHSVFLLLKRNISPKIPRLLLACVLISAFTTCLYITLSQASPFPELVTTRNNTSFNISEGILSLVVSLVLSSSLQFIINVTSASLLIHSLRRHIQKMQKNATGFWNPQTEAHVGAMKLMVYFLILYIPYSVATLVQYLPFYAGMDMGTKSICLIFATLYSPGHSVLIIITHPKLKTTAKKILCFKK
Sequence of hT2R7 (Q9NYW3 whole entry): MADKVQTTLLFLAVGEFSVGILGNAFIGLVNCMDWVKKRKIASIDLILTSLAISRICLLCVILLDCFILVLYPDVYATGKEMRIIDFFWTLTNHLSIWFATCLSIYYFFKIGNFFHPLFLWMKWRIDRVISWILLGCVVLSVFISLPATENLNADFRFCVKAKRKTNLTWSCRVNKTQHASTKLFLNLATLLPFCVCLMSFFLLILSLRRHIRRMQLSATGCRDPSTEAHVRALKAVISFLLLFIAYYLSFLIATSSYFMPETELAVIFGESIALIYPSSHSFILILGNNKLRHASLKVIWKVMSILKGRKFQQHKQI
Sequence of hT2R16 (Q9NYV7 whole entry): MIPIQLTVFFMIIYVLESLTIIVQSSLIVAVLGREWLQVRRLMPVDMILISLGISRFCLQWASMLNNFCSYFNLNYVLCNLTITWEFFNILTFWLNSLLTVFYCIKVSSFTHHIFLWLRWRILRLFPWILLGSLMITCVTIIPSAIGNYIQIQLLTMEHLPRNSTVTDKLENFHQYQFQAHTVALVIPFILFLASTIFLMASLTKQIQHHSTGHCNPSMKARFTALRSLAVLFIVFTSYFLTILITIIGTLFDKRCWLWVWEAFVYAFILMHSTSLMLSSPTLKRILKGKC
Sequence of hT2R5 (Q9NYW4 whole entry): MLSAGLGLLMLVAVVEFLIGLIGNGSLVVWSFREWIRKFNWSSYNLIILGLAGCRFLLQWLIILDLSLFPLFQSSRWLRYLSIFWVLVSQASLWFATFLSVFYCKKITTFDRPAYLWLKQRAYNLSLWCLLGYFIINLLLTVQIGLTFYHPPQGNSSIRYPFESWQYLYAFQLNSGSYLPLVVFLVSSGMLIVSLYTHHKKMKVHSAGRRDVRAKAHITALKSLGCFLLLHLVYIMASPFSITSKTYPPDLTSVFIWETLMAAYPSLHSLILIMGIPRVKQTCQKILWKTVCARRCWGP
Sequence of hT2R51 (P59533 whole entry): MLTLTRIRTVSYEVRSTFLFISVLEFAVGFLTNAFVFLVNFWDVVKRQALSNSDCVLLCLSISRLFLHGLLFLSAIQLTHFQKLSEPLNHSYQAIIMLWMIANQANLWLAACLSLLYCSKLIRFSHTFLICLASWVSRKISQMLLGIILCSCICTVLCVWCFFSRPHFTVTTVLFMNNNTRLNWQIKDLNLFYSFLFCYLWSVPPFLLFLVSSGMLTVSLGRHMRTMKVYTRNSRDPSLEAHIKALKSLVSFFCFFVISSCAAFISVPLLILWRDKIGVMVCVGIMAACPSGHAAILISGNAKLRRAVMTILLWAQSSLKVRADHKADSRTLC
Sequence of hT2R9 (Q9NYW1 whole entry): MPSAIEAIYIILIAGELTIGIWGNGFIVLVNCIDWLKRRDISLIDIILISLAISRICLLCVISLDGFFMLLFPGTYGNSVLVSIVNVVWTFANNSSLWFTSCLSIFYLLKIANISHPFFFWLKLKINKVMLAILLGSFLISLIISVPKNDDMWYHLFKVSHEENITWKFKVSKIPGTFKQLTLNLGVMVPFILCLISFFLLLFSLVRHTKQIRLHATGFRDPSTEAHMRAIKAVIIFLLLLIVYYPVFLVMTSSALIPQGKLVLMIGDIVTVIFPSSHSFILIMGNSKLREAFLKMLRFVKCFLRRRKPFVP
Sequence of hT2R13 (Q9NYV9 whole entry): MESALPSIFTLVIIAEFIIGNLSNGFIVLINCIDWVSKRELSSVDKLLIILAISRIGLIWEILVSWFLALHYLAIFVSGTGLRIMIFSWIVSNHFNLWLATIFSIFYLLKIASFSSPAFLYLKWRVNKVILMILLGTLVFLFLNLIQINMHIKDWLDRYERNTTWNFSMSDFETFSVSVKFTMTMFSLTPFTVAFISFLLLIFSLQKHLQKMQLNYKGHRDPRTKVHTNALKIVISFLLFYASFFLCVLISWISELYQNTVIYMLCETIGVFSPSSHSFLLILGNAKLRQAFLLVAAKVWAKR
Sequence of hT2R75 (P59540 whole entry): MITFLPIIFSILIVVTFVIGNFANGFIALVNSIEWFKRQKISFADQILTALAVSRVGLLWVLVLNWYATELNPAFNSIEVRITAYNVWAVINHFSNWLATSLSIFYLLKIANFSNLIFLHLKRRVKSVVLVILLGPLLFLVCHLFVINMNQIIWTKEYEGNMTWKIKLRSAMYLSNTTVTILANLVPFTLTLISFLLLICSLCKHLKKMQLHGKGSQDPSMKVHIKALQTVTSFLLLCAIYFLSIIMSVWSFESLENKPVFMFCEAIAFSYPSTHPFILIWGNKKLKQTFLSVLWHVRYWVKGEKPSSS
Sequence of hT2R10 (Q9NYW0 whole entry): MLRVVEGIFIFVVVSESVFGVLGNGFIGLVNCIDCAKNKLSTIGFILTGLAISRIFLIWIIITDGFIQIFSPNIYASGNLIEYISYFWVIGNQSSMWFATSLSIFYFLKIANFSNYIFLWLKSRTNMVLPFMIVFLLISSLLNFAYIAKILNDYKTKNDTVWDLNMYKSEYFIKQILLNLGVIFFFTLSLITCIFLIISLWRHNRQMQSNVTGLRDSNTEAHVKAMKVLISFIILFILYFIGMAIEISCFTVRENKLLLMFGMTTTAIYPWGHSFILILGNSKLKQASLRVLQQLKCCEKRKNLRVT
Sequence of hT2R71 (P59536 whole entry): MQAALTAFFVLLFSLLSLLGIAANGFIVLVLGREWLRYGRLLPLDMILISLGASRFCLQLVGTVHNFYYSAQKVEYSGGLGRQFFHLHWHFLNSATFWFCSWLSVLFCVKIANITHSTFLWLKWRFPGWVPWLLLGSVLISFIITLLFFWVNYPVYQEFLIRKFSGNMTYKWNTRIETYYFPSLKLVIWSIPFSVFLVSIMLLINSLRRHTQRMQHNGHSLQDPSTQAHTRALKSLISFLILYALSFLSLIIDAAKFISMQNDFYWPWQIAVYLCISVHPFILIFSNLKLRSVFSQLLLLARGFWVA
Sequence of hT2R64 (P59538 whole entry): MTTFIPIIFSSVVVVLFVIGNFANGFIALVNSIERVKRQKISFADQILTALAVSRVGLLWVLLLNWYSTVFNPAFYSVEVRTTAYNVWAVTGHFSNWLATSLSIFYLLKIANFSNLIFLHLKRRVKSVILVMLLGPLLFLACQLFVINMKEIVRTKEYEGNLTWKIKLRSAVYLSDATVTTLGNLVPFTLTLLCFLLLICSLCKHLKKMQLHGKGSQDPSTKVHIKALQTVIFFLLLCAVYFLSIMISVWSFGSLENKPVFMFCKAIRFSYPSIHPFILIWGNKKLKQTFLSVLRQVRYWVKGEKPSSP
Sequence of hT2R3 (Q9NYW6 whole entry): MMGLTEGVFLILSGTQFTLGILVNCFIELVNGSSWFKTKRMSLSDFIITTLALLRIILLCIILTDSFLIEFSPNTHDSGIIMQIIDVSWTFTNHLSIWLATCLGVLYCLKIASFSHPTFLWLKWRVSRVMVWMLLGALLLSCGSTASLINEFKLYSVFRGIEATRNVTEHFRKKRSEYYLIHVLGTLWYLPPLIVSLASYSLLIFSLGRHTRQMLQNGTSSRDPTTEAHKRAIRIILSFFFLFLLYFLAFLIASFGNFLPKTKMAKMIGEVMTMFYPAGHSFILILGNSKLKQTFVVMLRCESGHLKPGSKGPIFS

## COc1ccc(CN(Cc2ccccc2)S(=O)(=O)c2ccc(C(=O)O)cc2)cc1 [Example 5-1, 4-(N-benzyl-N-(4-methoxybenzyl)sulfamoyl)benzoic acid]
[1]; receptor activated to EC80 with the corresponding agonist, read-out: screening result against bitter receptor 14
  inhibition at 25 µM: > 80%
[2]; receptor activated to EC80 with the corresponding agonist, read-out: screening result against bitter receptor 61
  inhibition at 25 µM: > 80%
[3]; receptor activated to EC80 with the corresponding agonist, read-out: screening result against bitter receptor 51
  inhibition at 25 µM: 60 to 80%
[4]; receptor activated to EC80 with the corresponding agonist, read-out: screening result against bitter receptor 9
  inhibition at 25 µM: 20 to 40%
[5]; receptor activated to EC80 with the corresponding agonist, read-out: screening result against bitter receptor 16
  inhibition at 25 µM: 40 to 60%
[6]; receptor activated to EC80 with the corresponding agonist, read-out: screening result against bitter receptor 13
  inhibition at 25 µM: 20 to 40%
[7]; receptor activated to EC80 with the corresponding agonist, read-out: screening result against bitter receptor 5
  inhibition at 25 µM: 20 to 40%
[8]; receptor activated to EC80 with the corresponding agonist, read-out: screening result against bitter receptor 7
  inhibition at 25 µM: 40 to 60%
[9]
  IC50: 220 nM
[10]
  inhibition at 25 µM: 20 to 40%
other
  melting point: 161 to 163 °C
[11]; receptor activated to EC80 with the corresponding agonist, read-out: screening result against bitter receptor 8
  inhibition at 25 µM: 20 to 40%
[12]; receptor activated to EC80 with the corresponding agonist, class symbols, read-out: screening result against bitter receptor 4
  inhibition at 25 µM: 20 to 40%

## O=C1NS(=O)(=O)c2ccccc21 [saccharin]
[13]
  responsiveness of hT2R8 to saccharin: less responsive

## Cc1noc(C)c1Cn1cc(N2C(=O)CN(Cc3cccc(O)c3)C2=O)cn1 [Example 10-10, 3-(1-((3,5-dimethylisoxazol-4-yl)methyl)-1H-pyrazol-4-yl)-1-(3-hydroxybenzyl)imidazolidine-2,4-dione]
[14]; sample with 10-10
  Selected as more bitter: +other: 2
[14]; sample with control blocker 10-8
  Selected as more bitter: 10-8: 14
[15]; Table 6, read-out: HTS assay IC50
  IC50: 0.02 to 0.04 µM
[15]; table after Example 10-97, read-out: hT2R8 IC50
  IC50: 0.026 µM
[15]; unit uM, read-out: IC50 on hT2R08 bitter receptor
  IC50: 0.035 µM
[16]
  Selected as bitterer: With antagonists: 2
  Selected as bitterer: Without antagonists: 14

## CC(C)Oc1ccc(CN(Cc2ccccc2)S(=O)(=O)c2ccc(C(=O)O)cc2)cc1 [Example 5-110, 4-(N-benzyl-N-(4-isopropoxybenzyl)sulfamoyl)benzoic acid]
[17]
  inhibition at 25 µM: 60 to 80%
[18]
  inhibition at 25 µM: 40 to 60%
[1]; receptor activated to EC80 with agonist, read-out: inhibition of bitter receptor 14
  inhibition at 25 µM: > 80%
[2]; receptor activated to EC80 with agonist, read-out: inhibition of bitter receptor 61
  inhibition at 25 µM: > 80%
[3]; receptor activated to EC80 with agonist, read-out: inhibition of bitter receptor 51
  inhibition at 25 µM: 40 to 60%
[4]; receptor activated to EC80 with agonist, read-out: inhibition of bitter receptor 9
  inhibition at 25 µM: 20 to 40%
[5]; receptor activated to EC80 with agonist, read-out: inhibition of bitter receptor 16
  inhibition at 25 µM: 20 to 40%
[19]
  inhibition of bitter receptor 67: + (20% to 40% inhibition = +)
[6]; receptor activated to EC80 with agonist, read-out: inhibition of bitter receptor 13
  inhibition at 25 µM: 20 to 40%
[20]
  inhibition of bitter receptor 54: + (20% to 40% inhibition = +)
[21]
  inhibition of bitter receptor 65: +++ (60% to 80% inhibition = +++)
[22]
  inhibition at 25 µM: 40 to 60%
[23]
  inhibition of bitter receptor 55: ++++ (80% or greater inhibition = ++++)
[7]; receptor activated to EC80 with agonist, read-out: inhibition of bitter receptor 5
  inhibition at 25 µM: 20 to 40%
[8]; receptor activated to EC80 with agonist, read-out: inhibition of bitter receptor 7
  inhibition at 25 µM: 40 to 60%
[24]
  inhibition at 25 µM: 60 to 80%
[11]; receptor activated to EC80 with agonist, read-out: inhibition of bitter receptor 8
  inhibition at 25 µM: 20 to 40%
[25]
  inhibition of bitter receptor 44: +++ (60% to 80% inhibition = +++)
[26]
  inhibition of bitter receptor 63: +++ (60% to 80% inhibition = +++)
[12]; receptor activated to EC80 with agonist, read-out: inhibition of bitter receptor 4
  inhibition at 25 µM: 60 to 80%
